{"source": "patent US11717561B2", "about": "“Multimodal antimicrobial therapy” (Longhorn Vaccines and Diagnostics, LLC, priority 2013, dated 2023)", "key": {"[1]": {"test_system": "Mycobacterium smegmatis (MS)", "experiment": "Effect of antibiotics and lysostaphin on growth/lysis of live M. smegmatis, % T at 650 nm", "format": "cell-based"}, "ethanol-killed MTB": {"test_system": "ethanol-killed MTB", "format": "cell-based, M. tuberculosis", "details": "375 μg/ml"}, "[2]": {"details": "Imp 1 mg/ml, Lysostaphin 0 units/ml"}, "[3]": {"details": "Rif 1 mg/ml, Lysostaphin 0 units/ml"}}, "note": "Where two headings read alike, the source gives them in different places.", "data": [{"compound": "Lysostaphin: natural lysostaphin from S. staphylolyticus (Sigma Cat L7386), a 27 kD glycylglycine endopeptidase", "values": [{"measurement": "% T 5 min", "setting": "[1]; Lysostaphin alone 200 units/ml", "result": 77.34, "unit": "%"}, {"measurement": "% T 3 hours", "setting": "[1]; Lysostaphin alone 200 units/ml", "result": 71.54, "unit": "%"}, {"measurement": "% T 20 hours", "setting": "[1]; Lysostaphin alone 200 units/ml", "result": 45.47, "unit": "%"}]}, {"compound": "C[C@@H](O)[C@H]1C(=O)N2C(C(=O)O)=C(SCCNC=N)C[C@H]12.O", "note": "[Imp, Imipenem monohydrate]", "values": [{"measurement": "% Transmission (% T) change from baseline (negative equals growth, positive equals lysis/killing)", "setting": "[1]; Imipenem 1.0 mg/ml without lysostaphin", "result": "+12.54 % T"}, {"measurement": "% T 5 min", "setting": "[1]; [2]", "result": 78.00, "unit": "%"}, {"measurement": "% T 3 hours", "setting": "[1]; [2]", "result": 82.67, "unit": "%"}, {"measurement": "% T 20 hours", "setting": "[1]; [2]", "result": 90.54, "unit": "%"}]}, {"compound": "Recombinant Lysostaphin: recombinant simulans lysostaphin produced in E. coli (Sigma-Aldrich)", "values": [{"measurement": "% T at 3 min", "setting": "ethanol-killed MTB; bacterial dilution 1:2", "result": 86.268, "unit": "%"}, {"measurement": "% T at 10 min", "setting": "ethanol-killed MTB; bacterial dilution 1:2", "result": 91.59, "unit": "%"}, {"measurement": "% T at 20 min", "setting": "ethanol-killed MTB; bacterial dilution 1:2", "result": 92.587, "unit": "%"}, {"measurement": "% T at 3 min", "setting": "ethanol-killed MTB; bacterial dilution 1:4", "result": 95.356, "unit": "%"}, {"measurement": "% T at 10 min", "setting": "ethanol-killed MTB; bacterial dilution 1:4", "result": 77.33, "unit": "%"}, {"measurement": "% T at 20 min", "setting": "ethanol-killed MTB; bacterial dilution 1:4", "result": 92.651, "unit": "%"}, {"measurement": "% T at 3 min", "setting": "ethanol-killed MTB; bacterial dilution 1:8", "result": 97.308, "unit": "%"}, {"measurement": "% T at 10 min", "setting": "ethanol-killed MTB; bacterial dilution 1:8", "result": 98.03, "unit": "%"}, {"measurement": "% T at 20 min", "setting": "ethanol-killed MTB; bacterial dilution 1:8", "result": 98.186, "unit": "%"}]}, {"compound": "CO[C@H]1/C=C/O[C@@]2(C)Oc3c(C)c(O)c4c(O)c(c(/C=N/N5CCN(C)CC5)c(O)c4c3C2=O)NC(=O)/C(C)=C\\C=C\\[C@H](C)[C@H](O)[C@@H](C)[C@@H](O)[C@@H](C)[C@H](OC(C)=O)[C@@H]1C", "note": "[Rif, Rifampicin]", "values": [{"measurement": "% T 5 min", "setting": "[1]; [3]", "result": 79.25, "unit": "%"}, {"measurement": "% T 3 hours", "setting": "[1]; [3]", "result": 75.27, "unit": "%"}, {"measurement": "% T 20 hours", "setting": "[1]; [3]", "result": 71.79, "unit": "%"}]}]}
